Data reported in PMC8624485, “Modeling, Synthesis, and Biological Evaluation of Potential Retinoid-X-Receptor (RXR) Selective Agonists: Analogs of 4-[1-(3,5,5,8,8-Pentamethyl-5,6,7,8-tetrahyro-2-naphthyl)ethynyl]benzoic Acid (Bexarotene) and 6-(Ethyl(4-isobutoxy-3-isopropylphenyl)amino)nicotinic Acid (NEt-4IB)” (International Journal of Molecular Sciences, 2021).
Read-outs that look alike come from different tables or passages of the source.

Key:
Type in all cases: cell-based
[1] = molecular target: T1, RXRα (Homo sapiens, UniProt P19793); test: UAS/Gal4 GFP reporter assay of RXRα activation in UAS-GFP x KMT2A-MLLT3 cells
T1 construct: expressed in transfected cells; host or cells: UAS-GFP x KMT2A-MLLT3 cells (retroviral transduction)
T1 sequence (P19793 227-458 limits assumed): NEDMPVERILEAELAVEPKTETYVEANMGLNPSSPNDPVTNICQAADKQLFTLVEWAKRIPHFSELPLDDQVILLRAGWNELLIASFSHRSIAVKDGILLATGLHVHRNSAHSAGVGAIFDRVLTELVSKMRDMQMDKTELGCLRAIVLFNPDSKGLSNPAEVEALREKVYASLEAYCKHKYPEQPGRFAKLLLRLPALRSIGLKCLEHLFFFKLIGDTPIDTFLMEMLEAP
Protocol: Cells were treated, and after 48 h, GFP measured by a ZE5 Flow Cytometer (Biorad).

[2] = molecular target: T2, RXR-LXR heterodimer (LXR/LXRE) (Homo sapiens, UniProt P19793); test: LXRE-luciferase transactivation assay in HEK293 cells; conditions: for LXRE Activity (% of Bex): 100 nM compound alone, HEK293, bexarotene (1) set to 100%; for LHS Score (vs. Bex): LXRE Heterodimer Specificity: LXRE:RXRE activity ratio, compound 1 set to 1.0
T2 construct: expressed in transfected cells; host or cells: HEK293 cells
T2 sequence (P19793 1-462): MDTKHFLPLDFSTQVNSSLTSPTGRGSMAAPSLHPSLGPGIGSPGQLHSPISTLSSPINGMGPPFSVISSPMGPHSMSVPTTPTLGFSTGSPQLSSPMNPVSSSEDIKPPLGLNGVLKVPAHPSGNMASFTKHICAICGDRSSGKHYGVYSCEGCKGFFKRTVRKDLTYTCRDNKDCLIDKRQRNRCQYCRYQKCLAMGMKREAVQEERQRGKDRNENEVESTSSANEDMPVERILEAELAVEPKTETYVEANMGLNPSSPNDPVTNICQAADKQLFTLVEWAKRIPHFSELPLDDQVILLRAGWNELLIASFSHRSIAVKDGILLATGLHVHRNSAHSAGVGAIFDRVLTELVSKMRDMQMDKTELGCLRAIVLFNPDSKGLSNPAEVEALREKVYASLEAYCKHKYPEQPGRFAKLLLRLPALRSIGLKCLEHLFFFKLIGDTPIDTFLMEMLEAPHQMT
T2 sequence (Q13133 1-447 partner): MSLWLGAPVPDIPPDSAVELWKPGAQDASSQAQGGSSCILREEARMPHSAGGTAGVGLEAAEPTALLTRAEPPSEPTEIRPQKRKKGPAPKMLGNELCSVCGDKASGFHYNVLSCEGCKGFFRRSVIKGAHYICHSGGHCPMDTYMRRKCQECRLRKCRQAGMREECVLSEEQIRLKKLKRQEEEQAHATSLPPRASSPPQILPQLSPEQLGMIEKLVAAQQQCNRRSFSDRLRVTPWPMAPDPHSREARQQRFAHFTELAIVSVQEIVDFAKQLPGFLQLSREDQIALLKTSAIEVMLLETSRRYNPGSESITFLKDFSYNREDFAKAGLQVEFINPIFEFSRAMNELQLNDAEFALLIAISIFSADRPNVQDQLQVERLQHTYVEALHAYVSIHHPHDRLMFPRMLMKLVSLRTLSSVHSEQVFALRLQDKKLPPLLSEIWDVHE
Protocol: The activation from this natural LXRE in our system was tested in the presence of either 100 nM RXR agonists alone or in combination with 100 nM of both the RXR agonist and LXR agonist T0901317 (TO). […] The LXRE-mediated assays were performed using human embryonic cells (HEK293) seeded at a density of 60,000 cells/well in a 24-well plate and maintained in DMEM (Hyclone) supplemented with 10% fetal bovine serum, 100 µg/mL streptomycin, 100 U/mL penicillin (Invitrogen, Carlsbad, CA, USA) at 37 degrees Celsius, 5% CO2 for 24 h. The cells were co-transfected with 250 ng of an LXRE-luciferase reporter gene, 50 ng of pSG5-human RXRα, and 20 ng of renilla control plasmid. […] After 24 h post treatment, the cells were lysed and the transcriptional activity mediated by the LXRE was measured using the Dual Luciferase Assay System (Promega, Madison, WI) in a Sirius FB12 luminometer (Berthold Detection Systems, Pforzheim, Germany) according to the manufacturer’s protocol. The data are a compilation of between three and six independent assays with each treatment group dosed in triplicate for each independent assay. […] Bars on all graphs indicate standard deviation of the replicate experiments.
Cells were transfected for 24 h utilizing a liposome-mediated transfection protocol and then treated with the ethanol vehicle, or 100 nM of the indicated compound alone or in combination with 100 nM TO901317 (TO). […] (A) Human HEK-293 cells were transfected and treated as described in Figure 8.

[3] = molecular target: T3, human RARα (Homo sapiens, UniProt P10276); test: RARE-luciferase reporter assay in HEK293 cells; conditions: HEK293, all-trans-RA set to 100%
T3 construct: expressed in transfected cells; host or cells: HEK293 cells
T3 sequence (P10276 1-462): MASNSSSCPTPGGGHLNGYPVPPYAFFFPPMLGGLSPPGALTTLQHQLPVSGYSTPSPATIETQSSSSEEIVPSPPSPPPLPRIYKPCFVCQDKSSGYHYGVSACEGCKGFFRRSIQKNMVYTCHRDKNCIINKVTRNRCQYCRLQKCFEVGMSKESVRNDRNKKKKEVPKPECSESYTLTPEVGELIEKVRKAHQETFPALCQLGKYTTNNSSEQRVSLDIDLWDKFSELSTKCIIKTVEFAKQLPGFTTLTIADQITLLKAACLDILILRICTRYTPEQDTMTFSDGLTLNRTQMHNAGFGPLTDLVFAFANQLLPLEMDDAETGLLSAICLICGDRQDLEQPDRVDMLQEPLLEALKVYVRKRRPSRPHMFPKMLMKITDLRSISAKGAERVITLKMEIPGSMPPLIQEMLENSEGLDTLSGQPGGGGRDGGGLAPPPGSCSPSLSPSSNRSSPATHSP
Protocol: Human embryonic kidney cells (HEK293) were plated at 60,000 cells per well in a 24-well plate and maintained as described above. After 24 h, the cells were transfected with 250 ng pTK-DR5(X2)-Luc, 25 ng pCMX-human RARα, and 20 ng renilla utilizing 1.25 µL polyethylenimine (PEI) per well for 24 h. The sequence of the double DR5 RARE is: 5′-[…]-3′ (DR5 responsive elements underlined). The cells were treated with ethanol vehicle (0.1%), all-trans-retinoic acid (RA, the ligand for RAR), or the indicated rexinoid at a final concentration of 10 nM. After 24 h of treatment, the retinoid activity was measured as described above (dual luciferase assay). […] Three independent assays were conducted with triplicate samples for each treatment group. The value for RA was set to 100%. […]

[4] = system: Saccharomyces cerevisiae; test: Saccharomyces cerevisiae toxicity assay; conditions: 3 h incubation, colony count vs DMSO only control; highest concentration tested 11 µg/µL
Protocol: These compounds were also assessed for mutagenicity and toxicity in Saccharomyces cerevisiae and the toxicity results are summarized in Table 1. No compound was mutagenic in this assay.
All compounds were tested for toxicity and mutagenicity using a Saccharomyces cerevisiae based assay as described previously. Toxicity was assessed in this assay (Table 1), comparing growth on plates to control treatments. Compounds were solubilized in DMSO at increasing concentrations and cells were incubated with the compounds for 3 h before plating on selective media or YPD to assess toxicity and mutagenicity. Cytotoxicity was assessed as described. Growth of colonies on the full nutrient YPD plate for each treatment was compared to the DMSO only control. The concentration at which 50% cell death (as indicated by colony count compared to DMSO only control) +/−10% cell death is reported as the 50% killing rate. The highest concentration tested was 11 µg/µL.

[5] = RXRα activation, value (SD), Table 1 does not say whether GFP or Luc assay, read-out: EC50 (nM) +/−(SD)

SMILES	EC50 [1, 5]	LXRE Activity (% of Bex) [2]	LHS Score (vs. Bex) [2]	RARE Activity (%RA at 10 nM) [3]	Cyto-Toxicity (50% Cell Death) [4]	LXRE activity in combination with LXR ligand T0901317 (TO) ([2]; 100 nM compound + 100 nM T0901317, HEK293, compared with TO+1)	EC50 [1]
Cc1cc2c(cc1C1(c3ncc(C(=O)O)cn3)CC1)C(C)(C)CC2(C)C [Compound 33, 2-(1-(1,1,3,3,6-pentamethyl-2,3-dihydro-1H-inden-5-yl)cyclopropyl)pyrimidine-5-carboxylic Acid]	17 nM	50.9 % of Bex	0.38	5.9 %RA	none	–	–
C=C(c1ccc2c(c1)C(C)(C)CCC2(C)C)c1ncc(C(=O)O)cn1 [Compound 34, 2-(1-(5,5,8,8-tetramethyl-5,6,7,8-tetrahydronaphthalen-2-yl)vinyl)pyrimidine-5-carboxylic acid]	56.2 nM	77.6 % of Bex	0.70	10.3 %RA	none	–	–
C=C(c1ccc(C(=O)O)cc1)c1cc2c(cc1C)C(C)(C)CC2(C)C [Compound 26, reference compound]	70.1 nM	94.5 % of Bex	0.66	3.0 %RA	none	higher activity than TO+1	–
CCN(c1ccc(C(=O)O)cc1)c1ccc(OCC(C)C)c(C(C)C)c1 [Compound 30, 4-(ethyl(4-isobutoxy-3-isopropylphenyl)amino)benzoic acid]	397 nM	60.2 % of Bex	–	1.1 %RA	0.08 µg/µL	–	–
CCN(c1ccc(OCC(C)C)c(C(C)C)c1)c1ccc(C(=O)O)cn1 [Compound 25, 6-(ethyl(4-isobutoxy-3-isopropylphenyl)amino)nicotinic acid]	274 nM	72.4 % of Bex	–	2.9 %RA	none	–	–
C=C(c1ccc(C(=O)O)cc1)c1ccc2c(c1)C(C)(C)CCC2(C)C [Compound 27, 4-(1-(5,5,8,8-tetramethyl-5,6,7,8-tetrahydronaphthalen-2-yl)vinyl)benzoic acid, reference compound]	–	82.4 % of Bex	1.0	1.5 %RA	0.5 µg/µL	–	171 nM
C=C(c1ccc(C(=O)O)c(O)c1)c1cc2c(cc1C)C(C)(C)CCC2(C)C [Compound 37a, 2-Hydroxy-4-(1-(3,5,5,8,8-pentamethyl-5,6,7,8-tetrahydronaphthalen-2-yl)vinyl)benzoic acid]	24.2 nM	91.1 % of Bex	0.45	2.9 %RA	1 µg/µL	–	–
C=C(c1ccc(C(=O)O)c(O)c1)c1ccc2c(c1)C(C)(C)CCC2(C)C [Compound 37b, 2-Hydroxy-4-(1-(5,5,8,8-tetramethyl-5,6,7,8-tetrahydronaphthalen-2-yl)vinyl)benzoic Acid]	413 nM	69.1 % of Bex	0.91	5.2 %RA	0.5 µg/µL	–	–
CC1(C)CCC(C)(C)c2cc(C3(c4ncc(C(=O)O)cn4)CC3)ccc21 [Compound 35, 2-(1-(5,5,8,8-tetramethyl-5,6,7,8-tetrahydronaphthalen-2-yl)cyclopropyl)pyrimidine-5-carboxylic acid]	1.3 nM	60.6 % of Bex	–	5.1 %RA	none	–	–
CCN(c1ccc(OCC(C)C)c(C(C)C)c1)c1ncc(C(=O)O)cn1 [Compound 28, 2-(ethyl(4-isobutoxy-3-isopropylphenyl)amino)pyrimidine-5-carboxylic acid]	297 nM	77.7 % of Bex	–	1.6 %RA	1 µg/µL	–	–
C=C(c1ccc(C(=O)O)c(F)c1)c1ccc2c(c1)C(C)(C)CCC2(C)C [Compound 36, 2-fluoro-4-(1-(5,5,8,8-tetramethyl-5,6,7,8-tetrahydronaphthalen-2-yl)vinyl)benzoic Acid]	375 nM	85.2 % of Bex	–	1.4 %RA	0.08 µg/µL	–	–
C=C(c1ncc(C(=O)O)cn1)c1cc2c(cc1C)C(C)(C)CC2(C)C [Compound 32, 2-(1-(1,1,3,3,6-pentamethyl-2,3-dihydro-1H-inden-5-yl)vinyl)pyrimidine-5-carboxylic Acid]	34.4 nM	46.0 % of Bex	0.38	12.9 %RA	none	–	–
C=C(c1ccc(C(=O)O)cc1)c1cc2c(cc1C)C(C)(C)CCC2(C)C [Compound 1, reference compound]	–	–	–	–	0.5 µg/µL	–	–
